Species on record: Rattus norvegicus
Test: Open TG-GATES - Regimen: Daily Repeat
Type: toxicity, organism-based, Sprague-Dawley
Parameters: regimen Daily Repeat, gender Male, age 6 weeks
Settings: in vivo, po, 0 mg/kg, route gavage, dose level Control; for APTT / Bas / Eos / Fbg / Hb / Ht / Lym / MCH / MCHC / MCV / Mono / Neu / PT / Plat / RBC / Ret / WBC: tissue Blood; for KIDNEY_L / KIDNEY_R / KIDNEY_TOTAL: tissue Kidney; for LIVER: tissue Liver; for A/G / ALP / ALT / AST / BUN / CRE / Ca / Cl / DBIL / GLC / IP / K / LDH / Na / PL / RALB / TBIL / TC / TG / TP / gamma-GTP: tissue Plasma

Nc1ccc(Cc2ccc(N)cc2)cc1
TERMINAL_BW (72 h, time 3 day): 240.9 g | APTT (72 h, time 3 day): 13.2 s | Bas (72 h, time 3 day): 0% | Eos (72 h, time 3 day): 1% | Fbg (72 h, time 3 day): 284.6 mg/dL | Hb (72 h, time 3 day): 13.1 g/dL | Ht (72 h, time 3 day): 38.4% | Lym (72 h, time 3 day): 75% | MCH (72 h, time 3 day): 21.1 pg | MCHC (72 h, time 3 day): 34% | MCV (72 h, time 3 day): 62.1 fL | Mono (72 h, time 3 day): 2.8% | Neu (72 h, time 3 day): 20.2% | PT (72 h, time 3 day): 11.7 s | Plat (72 h, time 3 day): 134 x10_4/uL | RBC (72 h, time 3 day): 618.2 x10_4/ul | Ret (72 h, time 3 day): 6.4% | WBC (72 h, time 3 day): 93.3 x10_2/uL | KIDNEY_L (72 h, time 3 day): 1 g | KIDNEY_R (72 h, time 3 day): 1 g | KIDNEY_TOTAL (72 h, time 3 day): 2 g | LIVER (72 h, time 3 day): 11.1 g | A/G (72 h, time 3 day): 0.8 | ALP (72 h, time 3 day): 1856.4 IU/L | ALT (72 h, time 3 day): 42 IU/L | AST (72 h, time 3 day): 71.6 IU/L | BUN (72 h, time 3 day): 15.2 mg/dL | CRE (72 h, time 3 day): 0.2 mg/dL | Ca (72 h, time 3 day): 11 mg/dL | Cl (72 h, time 3 day): 105.4 meq/L | DBIL (72 h, time 3 day): 0.018 mg/dL | GLC (72 h, time 3 day): 177.2 mg/dL | IP (72 h, time 3 day): 7.6 mg/dL | K (72 h, time 3 day): 4 meq/L | LDH (72 h, time 3 day): 76.6 IU/L | Na (72 h, time 3 day): 142.8 meq/L | PL (72 h, time 3 day): 139 mg/dL | RALB (72 h, time 3 day): 2.6 g/dL | TBIL (72 h, time 3 day): 0.038 mg/dL | TC (72 h, time 3 day): 75 mg/dL | TG (72 h, time 3 day): 108.2 mg/dL | TP (72 h, time 3 day): 5.8 g/dL | gamma-GTP (72 h, time 3 day): 1 IU/L | TERMINAL_BW ([…], time 7 day): 282.7 g | TERMINAL_BW ([…], time 14 day): 342.6 g | TERMINAL_BW ([…], time 28 day): 438.3 g | APTT ([…], time 7 day): 15.2 s | Bas ([…], time 7 day): 0.2% | Eos ([…], time 7 day): 0.8% | Fbg ([…], time 7 day): 277.4 mg/dL | Hb ([…], time 7 day): 13.6 g/dL | Ht ([…], time 7 day): 39.5% | Lym ([…], time 7 day): 75.4% | MCH ([…], time 7 day): 20.9 pg | MCHC ([…], time 7 day): 34.5% | MCV ([…], time 7 day): 60.7 fL | Mono ([…], time 7 day): 2.2% | Neu ([…], time 7 day): 20.4% | PT ([…], time 7 day): 11.4 s | Plat ([…], time 7 day): 137.3 x10_4/uL | RBC ([…], time 7 day): 650.6 x10_4/ul | Ret ([…], time 7 day): 5.3% | WBC ([…], time 7 day): 99.1 x10_2/uL | APTT ([…], time 14 day): 14.9 s | Bas ([…], time 14 day): 0.2% | Eos ([…], time 14 day): 1% | Fbg ([…], time 14 day): 273 mg/dL | Hb ([…], time 14 day): 13.4 g/dL | Ht ([…], time 14 day): 39% | Lym ([…], time 14 day): 73.8% | MCH ([…], time 14 day): 20.2 pg | MCHC ([…], time 14 day): 34.1% | MCV ([…], time 14 day): 59.3 fL | Mono ([…], time 14 day): 2.2% | Neu ([…], time 14 day): 22.6% | PT ([…], time 14 day): 11.2 s | Plat ([…], time 14 day): 158.2 x10_4/uL | RBC ([…], time 14 day): 661.2 x10_4/ul | Ret ([…], time 14 day): 7.2% | WBC ([…], time 14 day): 97.7 x10_2/uL | APTT ([…], time 28 day): 17.5 s | Bas ([…], time 28 day): 0.4% | Eos ([…], time 28 day): 0.8% | Fbg ([…], time 28 day): 284.2 mg/dL | Hb ([…], time 28 day): 14.9 g/dL | Ht ([…], time 28 day): 42.2% | Lym ([…], time 28 day): 78% | MCH ([…], time 28 day): 20.2 pg | MCHC ([…], time 28 day): 35.3% | MCV ([…], time 28 day): 57.2 fL | Mono ([…], time 28 day): 2% | Neu ([…], time 28 day): 17.6% | PT ([…], time 28 day): 11.9 s | Plat ([…], time 28 day): 120.3 x10_4/uL | RBC ([…], time 28 day): 738.4 x10_4/ul | Ret ([…], time 28 day): 2.2% | WBC ([…], time 28 day): 122.3 x10_2/uL | KIDNEY_L ([…], time 7 day): 1.2 g | KIDNEY_R ([…], time 7 day): 1.1 g | KIDNEY_TOTAL ([…], time 7 day): 2.3 g | KIDNEY_L ([…], time 14 day): 1.3 g | KIDNEY_R ([…], time 14 day): 1.2 g | KIDNEY_TOTAL ([…], time 14 day): 2.5 g | KIDNEY_L ([…], time 28 day): 1.5 g | KIDNEY_R ([…], time 28 day): 1.4 g | KIDNEY_TOTAL ([…], time 28 day): 2.9 g | LIVER ([…], time 7 day): 12.4 g | LIVER ([…], time 14 day): 14.8 g | LIVER ([…], time 28 day): 17.8 g | A/G ([…], time 7 day): 0.9 | ALP ([…], time 7 day): 1837.2 IU/L | ALT ([…], time 7 day): 37 IU/L | AST ([…], time 7 day): 63.8 IU/L | BUN ([…], time 7 day): 17 mg/dL | CRE ([…], time 7 day): 0.2 mg/dL | Ca ([…], time 7 day): 11 mg/dL | Cl ([…], time 7 day): 106 meq/L | DBIL ([…], time 7 day): 0.022 mg/dL | GLC ([…], time 7 day): 177.6 mg/dL | IP ([…], time 7 day): 6.8 mg/dL | K ([…], time 7 day): 4.1 meq/L | LDH ([…], time 7 day): 65.6 IU/L | Na ([…], time 7 day): 143.2 meq/L | PL ([…], time 7 day): 138.6 mg/dL | RALB ([…], time 7 day): 2.7 g/dL | TBIL ([…], time 7 day): 0.066 mg/dL | TC ([…], time 7 day): 70.6 mg/dL | TG ([…], time 7 day): 106 mg/dL | TP ([…], time 7 day): 5.8 g/dL | gamma-GTP ([…], time 7 day): 1 IU/L | A/G ([…], time 14 day): 0.8 | ALP ([…], time 14 day): 1483.2 IU/L | ALT ([…], time 14 day): 36.6 IU/L | AST ([…], time 14 day): 58.6 IU/L | BUN ([…], time 14 day): 15.4 mg/dL | CRE ([…], time 14 day): 0.2 mg/dL | Ca ([…], time 14 day): 11 mg/dL | Cl ([…], time 14 day): 104.6 meq/L | DBIL ([…], time 14 day): 0.022 mg/dL | GLC ([…], time 14 day): 172.2 mg/dL | IP ([…], time 14 day): 6.3 mg/dL | K ([…], time 14 day): 3.9 meq/L | LDH ([…], time 14 day): 79.4 IU/L | Na ([…], time 14 day): 143.2 meq/L | PL ([…], time 14 day): 147 mg/dL | RALB ([…], time 14 day): 2.7 g/dL | TBIL ([…], time 14 day): 0.052 mg/dL | TC ([…], time 14 day): 76.6 mg/dL | TG ([…], time 14 day): 133.4 mg/dL | TP ([…], time 14 day): 6.2 g/dL | gamma-GTP ([…], time 14 day): 1 IU/L | A/G ([…], time 28 day): 0.7 | ALP ([…], time 28 day): 1089.4 IU/L | ALT ([…], time 28 day): 34.4 IU/L | AST ([…], time 28 day): 56.6 IU/L | BUN ([…], time 28 day): 15.2 mg/dL | CRE ([…], time 28 day): 0.2 mg/dL | Ca ([…], time 28 day): 10.9 mg/dL | Cl ([…], time 28 day): 105.2 meq/L | DBIL ([…], time 28 day): 0.02 mg/dL | GLC ([…], time 28 day): 176.4 mg/dL | IP ([…], time 28 day): 5.9 mg/dL | K ([…], time 28 day): 3.7 meq/L | LDH ([…], time 28 day): 67.6 IU/L | Na ([…], time 28 day): 144.4 meq/L | PL ([…], time 28 day): 141.2 mg/dL | RALB ([…], time 28 day): 2.7 g/dL | TBIL ([…], time 28 day): 0.058 mg/dL | TC ([…], time 28 day): 67.8 mg/dL | TG ([…], time 28 day): 168.2 mg/dL | TP ([…], time 28 day): 6.4 g/dL | gamma-GTP ([…], time 28 day): 1 IU/L

From ChEMBL document CHEMBL3885861, “Open TG-GATES”
